In the NIST ThermoML archive (doi:10.1016/j.jct.2015.09.002):

Test: xn = mol fraction of the nth substance listed
Settings: 93.2 kPa, Liquid, Vibrating tube method

CCCN [propan-1-amine] + CC#N
mass density [kg/m3]
Settings | 293.15 K | 298.15 K | 303.15 K | 308.15 K
x2 = 0 | 716.48 | 711.21 | 705.88 | 700.62
x2 = 0.0105 | 717.02 | 711.79 | 706.42 | 701.16
x2 = 0.0199 | 717.49 | 712.26 | 706.89 | 701.63
x2 = 0.0296 | 717.97 | 712.74 | 707.37 | 702.11
x2 = 0.0409 | 718.55 | 713.3 | 708.3 | 702.66
x2 = 0.0512 | 719.01 | 713.79 | 708.42 | 703.16
x2 = 0.061 | 719.48 | 714.26 | 708.9 | 703.65
x2 = 0.0707 | 719.96 | 714.7 | 709.38 | 704.14
x2 = 0.0809 | 720.48 | 715.23 | 710.24 | 704.64
x2 = 0.0895 | 720.87 | 715.66 | 710.31 | 705.06
x2 = 0.0993 | 721.35 | 716.14 | 710.79 | 705.55
x2 = 0.1493 | 723.85 | 718.65 | 713.34 | 708.1
x2 = 0.2006 | 726.46 | 721.27 | 715.97 | 710.75
x2 = 0.2499 | 729.08 | 723.91 | 718.64 | 713.3
x2 = 0.2998 | 731.77 | 726.59 | 721.31 | 715.96
x2 = 0.3507 | 734.55 | 729.34 | 724.05 | 718.82
x2 = 0.3993 | 737.38 | 732.18 | 726.9 | 721.58
x2 = 0.4479 | 740.27 | 735.05 | 729.77 | 724.44
x2 = 0.4988 | 743.34 | 738.1 | 732.79 | 727.56
x2 = 0.5486 | 746.55 | 741.33 | 736.02 | 730.68
x2 = 0.6017 | 750.02 | 744.77 | 739.46 | 734.16
x2 = 0.6499 | 753.32 | 748.08 | 742.76 | 737.45
x2 = 0.6998 | 756.86 | 751.61 | 746.49 | 740.98
x2 = 0.7501 | 760.68 | 755.4 | 750.19 | 744.7
x2 = 0.8001 | 764.57 | 759.28 | 754.03 | 748.54
x2 = 0.8487 | 768.54 | 763.25 | 757.85 | 752.47
x2 = 0.8995 | 772.9 | 767.55 | 762.15 | 756.72
x2 = 0.9089 | 773.68 | 768.32 | 762.93 | 757.54
x2 = 0.9201 | 774.65 | 769.28 | 763.89 | 758.5
x2 = 0.928 | 775.36 | 770 | 764.6 | 759.19
x2 = 0.9393 | 776.43 | 771.07 | 765.67 | 760.24
x2 = 0.9491 | 777.27 | 771.89 | 766.51 | 761.05
x2 = 0.9594 | 778.22 | 772.82 | 767.45 | 761.98
x2 = 0.9678 | 778.99 | 773.6 | 768.21 | 762.74
x2 = 0.9795 | 780.09 | 774.69 | 769.3 | 763.82
x2 = 0.9893 | 781.01 | 775.61 | 770.21 | 764.73
